Series [1] concerns 5XFAD mice. As to the kind of experiment: LPS-induced neuroinflammation in brains of 5XFAD Alzheimer's dementia mice, Iba-1 immunohistochemical staining. It is filed as in vivo, mouse. As to conditions: 3-month-old 5XFAD mice, single dose 10 mg/kg + LPS 3 mg/kg, 48 hours, vs LPS+vehicle (FIG. 5B). As for the experimental part: Since LPS causes different degrees of inflammatory response depending on the strain of animals to be administered, LPS origin and the like, the animals were co-administered a single dose of 3 mg/kg of LPS and 10 mg/kg of DD-5052, and then sacrificed 48 hours later, 5XFAD mice were treated with 3 mg/kg of LPS by referencing a document which confirms the mortality rate by treating 5XFAD mice with 3 mg/kg of LPS (Barton, S. M.; Janve, V. A.; McClure, R.; Anderson, A.; Matsubara, J. A.; Gore, J. C.; Pham, W., Lipopolysaccharide Induced Opening of the Blood Brain Barrier on Aging 5XFAD Mouse Model. J Alzheimers Dis 2019, 67, (2), 503-513.) and a document which confirms that microgliosis reaches its maximum value from day 2 after the administration of LPS (Kondo, S.; Kohsaka, S.; Okabe, S., Long-term changes of spine dynamics and microglia after transient peripheral immune response triggered by LPS in vivo. […] 48 hours after administration of LPS and DD-5052, mouse brains were removed by cardiac perfusion fixation (4% PFA). Thereafter, the removed mouse brain was secondarily fixed in 4% PFA for 20 hours, and then immersed in a 30% sucrose solution. Subsequently, the mouse brains were frozen and sliced into a thickness of 30

In series [2] the test system is 5XFAD mice. As to the kind of experiment: Alzheimer's dementia-related pathology in 5XFAD mice, immunofluorescence staining (4G8, Iba-1, NeuN). The class given is in vivo, mouse. As for the experimental part: (§1) Then, cognitive function experiments were performed on each mouse, and then the mouse brain was fixed by cardiac perfusion fixation. Thereafter, the removed mouse brain was secondarily fixed in a 4% PFA solution for 20 hours, and then immersed in a 30% sucrose solution. Subsequently, the mouse brains were frozen and sliced into a thickness of 30 μm.
The effects of DD-S052 on beta-amyloid accumulation, microgliosis, and neuronal loss were confirmed using an immunofluorescence staining method.
Specifically, in the case of immunofluorescence labeling, 4 to 5 coronal sections were obtained at subventricular zone (1.18 and 0.02 mm from bregma) and hippocampal formation (−1.58 and −3.80 mm from bregma) levels based on Paxinos and Franklin's “The Mouse Brain in Stereotaxic Coordinates.” Brain tissue was washed with PBS using the free-floating method in a Titramax 101 orbital shaker (Heidolph, Schwabach, Germany) and sections were incubated with PBS including 0.3% Triton X-100, 0.5 mg/mL bovine serum albumin (BSA) and primary antibodies as follows at 4° C. overnight: mouse anti-4G8 antibody (1:2,000; Cat. #800701, BioLegend, USA), mouse anti-NeuN antibody (1:100; Cat. #MAB377, Merck KGaA, Darmstadt, Germany), and goat anti-Iba-1 antibody (1:500; Cat. #ab5076, Abcam, Cambridge, UK).
Before being incubated with the anti-4G8 antibody, brain sections were incubated with 70% formic acid for antigen retrieval for 20 minutes, washed three times with PBS for 5 minutes each, and then incubated with a secondary antibody at room temperature for 50 minutes, and fluorescence signals were observed. As the secondary antibodies, the following antibodies were used: donkey Alexa 488-conjugated anti-mouse IgG (1:200; Cat. #A21202, Thermo Fisher Scientific Inc.), donkey Alexa 488-conjugated anti-goat IgG (1:200; Cat. #A11055, Thermo Fisher Scientific Inc.), and donkey Alexa 594-conjugated anti-rat IgG (1:200; Cat. #A21209, Thermo Fisher Scientific Inc.). All antibodies were diluted with PBS including 0.3% Triton X-100.

Series [3] concerns 5XFAD mice. As to the kind of experiment: Cognitive function experiment (spontaneous alternation, total arm entry) in 5XFAD mice. As to conditions: 5.5-month-old 5XFAD mice, 2 mg/kg i.p. every other day for 4 weeks. It is filed as in vivo, mouse. As for the experimental part: as §1
The cognitive function experiment is a novel experiment based on the instinctive behavior of rodents with the will to explore new environments, and is an experiment to evaluate the spatial perception ability of mice to choose a path different from the one which mice chose immediately before in a maze, and scores are given by dividing spontaneous alternation (the ratio of choosing a different path from the path chosen immediately before) by the total number of passages passed (total arm entry). The total arm entry during the experiment becomes an index to evaluate whether all groups have similar motility and whether the experiment is performed normally, apart from spatial perception ability.

Series [4] has as its target T1, tau K18 (Homo sapiens, UniProt P10636).
T1 construct: 0.5 mg/mL tau K18, 0.1 mg/mL heparin
As to the kind of experiment: Thioflavin T (ThT) assay of tau aggregation. As to conditions: 0.5 mg/mL tau K18, 0.1 mg/mL heparin, DTT, PBS pH 7.4, 21 hours incubation; 10-1000 μg/mL (FIG. 7). It is filed as biochemical. As for the experimental part:
Thioflavin T (ThT) assay was performed to investigate the effect of DD-S052 and PEGylated DD-S052 on tau aggregation. ThT is known to bind to (3-sheet-rich protein aggregates to produce fluorescence. Synthetic tau K18 was dissolved in PBS (pH 7.4) in order to induce tau aggregation. The polymerization of tau proteins was induced by preparing a solution including PBS (pH 7.4), 0.5 mg/mL tau K18, 0.1 mg/mL heparin and 100 ρ, M DTT. DD-5052 at various concentrations (10, 20, 40, 100, and 1000 μg/mL), a 100 ρ, M methylene blue (MB) solution (positive control), and PEGylated DD-5052 were incubated together with an aggregation mixture for 21 hours. After incubation, a ThT solution (15 ρ, M in a 50 mM glycine buffer, pH 8.9) was added to a 96-well plate containing the sample and the aggregation mixture, and the resulting mixture was incubated for 3 hours. The fluorescence intensity of ThT was measured using a SpectraMax iD3 Multi-Mode Microplate Reader (Molecular Devices, San Jose, CA, USA) at excitation and emission wavelengths of 440 and 484 nm and quantified.

Series [5] relates to wild-type mice. As to the kind of experiment: LPS-induced neuroinflammation (microgliosis) in brains of wild-type mice, Iba-1 immunohistochemical staining. It is filed as in vivo, mouse. On the procedure: Sections were incubated in 1% H2O2 for 15 minutes, and then put into a solution in which a mouse […] was diluted 1:400, and incubated at 4° C. overnight. After incubation with a biotinylated secondary antibody (diluted 1:200, Vector Laboratories, Inc., Burlingame, CA, USA) at room temperature for 1 hour, the sections were incubated with an avidin-biotin-peroxidase complex (diluted 1:100, vector) for 1 hour. Thereafter, 0.02% 3,3′-diaminobenzidine and 0.01% H2O2 were reacted for about 3 minutes. After each incubation stage, the sections were washed three times with PBS. Finally, the sections were mounted on gelatin-coated slides, and dehydrated while increasing an alcohol concentration and cleared in xylene.
Experiments were designed as illustrated in FIG. 4A to confirm microglia in the brains of wild-type mice, and immunohistochemical staining was performed using a goat-anti Iba-1 antibody (Ab5076,1:500) against Iba-1 which is a marker for microglia. Three-month-old wild-type mice were intraperitoneally injected (i.p.) with LPS (30 mg/kg/day)+vehicle (Hartmann dex) or DD-S052 (30 mg/kg/day)+LPS (30 mg/kg/day), and sacrificed 6 hours after the last injection of LPS. In this case, LPS and DD-S052 were loaded in separate syringes and injected separately into the right and left abdomen, respectively, and LPS was administered, and then DD-S052 was administered approximately 1 minute later. The half-life of LPS in mouse blood was approximately 2 to 4 minutes. 6 hours after administration of LPS and DD-S052, mouse brains were removed by cardiac perfusion fixation (4% PFA). Thereafter, the removed mouse brain was secondarily fixed in 4% PFA for 20 hours, and then immersed in a 30% sucrose solution. Subsequently, the mouse brains were frozen and sliced into a thickness of 30 μm.
Thereafter, immunohistochemical staining for Iba-1 was performed by the method described in Example 1-2 in order to confirm microglia in the mouse hippocampus, and the results are shown in FIG. 4B.
Microglia were confirmed in the substantia nigra pars compacta (SNc) by performing immunohistochemical staining for Iba-1. Wild-type mice were treated with LPS and DD-5052 in the same manner as in Example 5-1.

The subject of series [6] is LPS-treated BV-2 cells (microglial cell line). As to the kind of experiment: LPS-mediated cytokine production in BV-2 cells (qRT-PCR). It is filed as cell-based. As to conditions: 20 ng/ml peptide + 2 ng/ml LPS co-treatment, 6 hours, vs LPS-treated cells (FIG. 3). As for the experimental part:
Microglial cell line BV-2 cells were co-treated with 20 ng/ml of peptide (DD-5052) according to the invention and 2 ng/ml of LPS and cultured for 6 hours. Subsequently, the mRNA expression levels of proinflammatory cytokines IL-1(3 and TNF-α were measured using quantitative real-time polymerase chain reaction (PCR).
Specifically, total RNA was extracted from BV-2 cells using an RNA purification kit (Gene All, Seoul, Korea) according to the manufacturer's protocol. cDNA was synthesized using the Revert Aid First Strand cDNA Synthesis Kit (Thermo Scientific, Waltham, MA, USA) and qRT-PCR analysis was performed using the SYBR Green PCR Master Mix (Thermo Scientific, Waltham, MA, USA). The gene-specific primer sequences for IL-1(3 and TNF-α are shown in the following Table 4, and the mRNA levels of IL-1(3 and TNF-α were calculated relative to the control sample amount.

The nature of series [7]: Artificial membrane permeation test simulating the blood-brain barrier (PAMPA-096), LC-MS / ESI-FT-ICR-MS. The following applies: for MS peak intensity, Before / LogPe: 100 μg/ml peptide; for LogPe: 18 hr, room temperature, PBS; for MS peak intensity, Acceptor / MS peak intensity, Donor: after 18 hr. The class given is in vitro ADME. On the procedure:
In order to confirm whether the peptide DD-S052 of the present invention passes through the blood-brain barrier (BBB), an artificial membrane permeation test simulating the blood-brain barrier was performed using a parallel artificial membrane permeability assay kit (PAMPA-096; BioAssay Systems).
Analysis conditions are shown in the following Table 5, and analysis was performed by liquid chromatography-mass spectrometry (LC-MS).
Quantitative analysis was performed using electrospray ionization coupled to Fourier transform ion cyclotron resonance mass spectrometry (ESI-FT-ICR-MS), and the analysis conditions are shown in the following Table 6.
The intensity value of a peak corresponding to the test material was used according to the Log Pe function described in an existing document (Evaluation of the reproducibility of Parallel Artificial Membrane Permeation Assays PAMPA, Sigma Aldrich), and the value calculated by the Log Pe function was used to predict the degree of permeation by referencing an existing document (Brian. J et al. Predicting a Drug's Membrane Permeability: A Computational Model Validated With in Vitro Permeability Assay Data. J Phys Chem B. 2017 May 25;121(20):5228-5237).

Non-standard residues stand in square brackets, D forms with d. Residues, ends and D or L forms follow the SMILES beside them.

T1 sequence (P10636 561-685 limits assumed): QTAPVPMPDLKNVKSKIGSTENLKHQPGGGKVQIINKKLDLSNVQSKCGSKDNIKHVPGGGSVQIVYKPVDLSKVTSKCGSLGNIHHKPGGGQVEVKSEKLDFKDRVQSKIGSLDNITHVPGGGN

Consider `CC(C)C[C@@H](NC(=O)[C@H](N)CCCCN)C(=O)N[C@H](CCCNC(=N)N)C(=O)N[C@@H](C(=O)N[C@H](CCCCN)C(=O)N[C@H](CC(C)C)C(=O)N[C@H](CCCNC(=N)N)C(=O)N[C@H](CCCNC(=N)N)C(=O)N[C@H](Cc1ccc(O)cc1)C(=O)N[C@H](CC(C)C)C(=O)N[C@H](CCCNC(=N)N)C(N)=O)C(C)C` [DD-S052, KLRVKLRRYLR-NH2 (AcOH)] (H-[dK][dL][dR][dV][dK][dL][dR][dR][dY][dL][dR]-NH2; N-terminus assumed), for which the “Iba-1(+) microglia in cerebral cortex and hippocampus” value in series [1] is listed as “decreased”. The “number of NeuN(+) cells (neuronal loss)” value in series [2] (2 mg/kg i.p. every other day for 4 weeks) is listed as “increased”. Moreover, in series [2] (2 mg/kg i.p. every other day for 4 weeks (FIG. 6C)), the “4G8(+) region (beta-amyloid accumulation)” value is recorded as “reduced”. Further, the “number of Iba-1(+) cells (microgliosis)” value in series [2] (2 mg/kg i.p. every other day for 4 weeks (FIG. 6D)) was “reduced”. For the same molecule, the total arm entry result in series [3] (8-minute session, vs vehicle-treated 5XFAD, no significance between groups) is given as “increased”. In series [3] (vs vehicle-treated 5XFAD (FIG. 6B)), the spontaneous alternation result is given as “increased”. Further, in series [4], the “fluorescence intensity of thioflavin T (ThT) (tau K18 aggregation)” value is reported as “reduced”. Further, in series [5] (3-month-old wild-type mice, 30 mg/kg/day i.p. + LPS 30 mg/kg/day i.p., 6 hours after last LPS (FIG. 4B)), the “microglial morphology in hippocampus” value was “tendency to change from an amoeboid shape to a ramified shape”. Moreover, the “number of Iba-1-positive cells in hippocampus” value in series [5] (3-month-old wild-type mice, 30 mg/kg/day i.p. + LPS 30 mg/kg/day, vs LPS+vehicle (Hartmann dex), p<0.001 (FIG. 4C)) is “remarkably decreased”. Further, in series [5] (wild-type mice, 30 mg/kg/day i.p. + LPS 30 mg/kg/day (FIG. 4D)), the “microglial morphology in substantia nigra pars compacta (SNc)” value is given as “tendency to change from an amoeboid shape to a ramified shape”. Further, the “Iba-1(+) microglia in the SNc” value in series [5] (wild-type mice, 30 mg/kg/day i.p. + LPS 30 mg/kg/day, vs LPS+vehicle (FIG. 4D)) was “tended to decrease”. Besides, in series [6], the “mRNA expression of IL-1(3 induced by LPS)” value is reported as “suppressed” and the “mRNA expression of TNF-α induced by LPS” value is “suppressed”. For the same molecule, in series [7] (peak at 375 m/z), the “MS peak intensity, Before” value is given as 1829478400; the LogPe was −5.405; the “MS peak intensity, Acceptor” value was 717305173; the “MS peak intensity, Donor” value is on record as 909677952. Also, in series [7] (peak at 512 m/z), the “MS peak intensity, Before” value was 1667509760; the LogPe is given as −5.362; the “MS peak intensity, Acceptor” value is recorded as 717488192; the “MS peak intensity, Donor” value is reported as 867968256.
Turning to “EG-KLRVKLRRYLR-NH2 (AcOH) (not fully specified; N-terminal PEG, C-terminal amide, acetate salt; DD-S052P; BINDING (11) amine group (NH2) is added to C-terminus of polypeptide.; SITE (9) trifluoroacetic acid (TFA) at a terminus of the 9th amino acid from the N terminus of a peptide is substituted with an acetate salt.; SITE (1) peptide N-terminus PEGylation)”, the “fluorescence intensity of thioflavin T (ThT) (tau K18 aggregation)” value in series [4] is “reduced”.
